Results: article PMC6100703, “Rapid, simple, and clinically applicable high-performance liquid chromatography method for clinical determination of plasma colistin concentrations” (Journal of Pharmaceutical Health Care and Sciences, 2018)
Values after ≈ are worked out from the molar mass of the structure shown. Where two headings read alike, the source gives them in different places.

Columns and labels:
[1] = Derivative stability (FMOC-Cl derivatives in eluted solution); type: physicochemical; conditions: mean ± SD; for Refrigerated, recovery relative to freshly prepared samples: 4 °C; for Refrigerated, recovery relative to freshly prepared samples / Room temperature, recovery relative to freshly prepared samples / Frozen, recovery relative to freshly prepared samples: 7 d, HPLC-fluorescence peak area; for Refrigerated, recovery relative to freshly prepared samples / Frozen, recovery relative to freshly prepared samples: dark; for Room temperature, recovery relative to freshly prepared samples: 25 ± 1 °C, normal fluorescent light; for Freeze-thaw, recovery relative to freshly prepared samples: three cycles −23 °C to room temperature on consecutive days; for Frozen, recovery relative to freshly prepared samples: −23 °C, closed glass test tubes
Description: The derivative stabilities of the samples containing 0.10 and 8.0 μg/mL of the standard colistin solution and the internal standard were evaluated at − 23 (frozen), 4 (refrigerated), and 25 ± 1 °C (room temperature) over 7 d. Freeze-thaw stability was assessed after three complete freeze-thaw cycles (− 23 °C to room temperature) on consecutive days. The stability of the target compounds was presented as the recovery (%) relative to the freshly prepared samples. The solutions at room temperature were exposed to normal fluorescent light, while the frozen and refrigerated samples were stored in a dark refrigerator and were exposed to light only during sampling. The storage temperatures were closely monitored throughout the study.

[2] = system: MDRP with metallo-beta-lactamase (multidrug-resistant Pseudomonas aeruginosa); assay: Minimum inhibitory concentrations for the blood culture isolate of the patient; type: cell-based; conditions: for MIC: Pseudomonas aeruginosa, read-out: minimum inhibitory concentration
[3] = parameters: method as in 2 sources, ref Sorlí et al. [24] ||| ref Garonzik et al. [25]; conditions: cited from earlier work
[4] = human, in vivo
Description: (§1) A patient (weight 52 kg, height 153.2 cm) with antineutrophilic cytoplasmic antibody-positive vasculitis undergoing renal replacement (intermittent haemodialysis, HD) was admitted to the hospital for rituximab and steroid pulse therapy. The HD patient’s disease had been complicated by Pneumocystis jiroveci pneumonia, herpes zoster, and MDRP infections. […] With the preliminary information of positive blood cultures, empiric treatment with cefepime (1 g every 12 h) was performed over 5 d. […] In addition, the following treatment parameters were employed: dialysate flow rate, 500 mL/min; blood flow rate, 100 mL/min; membrane surface area, 1.5 m^2; membrane type, APS-15MD New; HD frequency, twice per week; and session duration, 3 h. Samples were collected immediately prior to a dose or immediately prior to the next dose if CMS was not being administered every 24 h. The actual times of CMS administration and blood sampling were recorded. Samples were collected in potassium (K)2-ethylenediaminetetraacetic acid (EDTA)-containing tubes and centrifuged for 15 min within 2 h of collection. The resulting plasma sample was measured on the same day as blood collection. The HD clearance (CLHD) for colistin was calculated every hour during the start and end of the HD session as: […]

[5] = Plasma colistin concentration of a haemodialysis patient on CMS therapy (HPLC with fluorescence detection); type: in vivo, human; conditions: K2-EDTA plasma; for colistin concentration in plasma: HD patient
Description: HPLC analysis was performed at 25 ± 1 °C under isocratic conditions. All measurements were carried out at excitation and emission wavelengths of 260 nm and 315 nm, respectively, and the column temperature was maintained at 40 °C. The mobile phase consisted of a mixture of acetonitrile/tetrahydrofuran/distilled water (50:14:20, v/v/v) and was delivered at a flow rate of 1.6 mL/min. The sample injection volume was 50 μL.
Initially, the colistin and the internal standard (netilmicin sulfate, 20 μL) stock solutions were added to a portion of serum (200 μL). Following the addition of methanol (25 μL) and 10% trichloroacetic acid (25 μL) to the sample, it was vortexed for 10 s prior to centrifugation at 13,000 rpm for 5 min. The supernatant was then placed in an additional centrifuge tube and mixed with a 1 M sodium hydroxide solution (10 μL). The sample solution was loaded onto the solid-phase extraction (SPE) cartridge, which had been previously conditioned according to the following procedure.
SPE C18 cartridges (55 μm, 100 mg/mL; Phenomenex, Torrance, USA) were conditioned using acetone (1 mL) and methanol (1 mL) and equilibrated with 1% carbonate buffer (1 mL). The sample was then applied to the wet cartridge. After passing the sample through the cartridge, it was rinsed with methanol (1 mL) and carbonate buffer (1 mL), followed by a 100 mM FMOC-Cl solution (60 μL) and 90% methanol (3 mL). The derivatives were then eluted into a glass culture tube using acetone (500 μL). The eluted solution was mixed with a 0.6 M boric acid solution (100 μL) prior to vortex-mixing for 10 s, and then the obtained sample was injected into the HPLC system. All procedures were conducted at 25 ± 1 °C.
A patient (weight 52 kg, height 153.2 cm) with antineutrophilic cytoplasmic antibody-positive vasculitis undergoing renal replacement (intermittent haemodialysis, HD) was admitted to the hospital for rituximab and steroid pulse therapy. The HD patient’s disease had been complicated by Pneumocystis jiroveci pneumonia, herpes zoster, and MDRP infections. […] With the preliminary information of positive blood cultures, empiric treatment with cefepime (1 g every 12 h) was performed over 5 d. […] In addition, the following treatment parameters were employed: dialysate flow rate, 500 mL/min; blood flow rate, 100 mL/min; membrane surface area, 1.5 m^2; membrane type, APS-15MD New; HD frequency, twice per week; and session duration, 3 h. Samples were collected immediately prior to a dose or immediately prior to the next dose if CMS was not being administered every 24 h. The actual times of CMS administration and blood sampling were recorded. Samples were collected in potassium (K)2-ethylenediaminetetraacetic acid (EDTA)-containing tubes and centrifuged for 15 min within 2 h of collection. The resulting plasma sample was measured on the same day as blood collection. The HD clearance (CLHD) for colistin was calculated every hour during the start and end of the HD session as:
CMS was administered to the HD patient over 7 d (days 6–12), and six samples of blood were collected between days 7 and 12 of CMS therapy (Fig. 3). The initial sample was collected on day 7 approximately 20 h after the administration of CMS. All other samples were collected ~ 24 h after each dose. On the day of dialysis, the blood samples were collected at the start and end of the HD session.

[6] = system: multidrug-resistant Pseudomonas aeruginosa infection; conditions: HD patient with MDRP infection; CMS 75 mg every 24 h after loading dose 250 mg, in combination with meropenem 1 g every 24 h; after a few days
Description: as §1

[7] = blood cultures from two peripheral vein sites of the HD patient, MDRP with metallo-beta-lactamase
[8] = critically ill patients, including those on HD and continuous renal replacement, ref Garonzik et al. [25]
[9] = patients suffering from nephrotoxicity, ref Sorlí et al. [24]

CCN[C@@H]1C[C@H](N)[C@@H](O[C@H]2OC(CN)=CC[C@H]2N)[C@H](O)[C@H]1O[C@H]1OC[C@](C)(O)[C@H](NC)[C@H]1O [Netilmicin, netilmicin]
Refrigerated, recovery relative to freshly prepared samples ([1]; 0.10 μg/mL): 104 ± 2%
Room temperature, recovery relative to freshly prepared samples ([1]; 0.10 μg/mL): 102 ± 3%
Freeze-thaw, recovery relative to freshly prepared samples ([1]; 0.10 μg/mL): 98 ± 3%
Frozen, recovery relative to freshly prepared samples ([1]; 0.10 μg/mL): 102 ± 3%
Refrigerated, recovery relative to freshly prepared samples ([1]; 8.00 μg/mL): 101 ± 2%
Room temperature, recovery relative to freshly prepared samples ([1]; 8.00 μg/mL): 103 ± 2%
Freeze-thaw, recovery relative to freshly prepared samples ([1]; 8.00 μg/mL): 102 ± 2%
Frozen, recovery relative to freshly prepared samples ([1]; 8.00 μg/mL): 103 ± 3%

NCC[C@H](O)C(=O)N[C@@H]1C[C@H](N)[C@@H](O[C@H]2O[C@H](CN)[C@@H](O)[C@H](O)[C@H]2O)[C@H](O)[C@H]1O[C@H]1O[C@H](CO)[C@@H](O)[C@H](N)[C@H]1O [amikacin]
MIC [2, 7]: > 16 µg/mL

C[C@H]1[C@H](NC(=O)/C(=N\OC(C)(C)C(=O)O)c2csc(N)n2)C(=O)N1S(=O)(=O)O [aztreonam]
MIC [2]: 16 µg/mL (≈ 36.7 µM)

CO/N=C(\C(=O)N[C@@H]1C(=O)N2C(C(=O)[O-])=C(C[N+]3(C)CCCC3)CS[C@H]12)c1csc(N)n1 [cefepime]
MIC [2]: > 32 µg/mL

CC(C)(O/N=C(\C(=O)N[C@@H]1C(=O)N2C(C(=O)[O-])=C(C[n+]3ccccc3)CS[C@H]12)c1csc(N)n1)C(=O)O [ceftazidime]
MIC [2, 7]: > 32 µg/mL

O=C(O)c1cn(C2CC2)c2cc(N3CCNCC3)c(F)cc2c1=O [ciprofloxacin]
MIC [2]: > 4 µg/mL

CNC(C)C1CCC(N)C(OC2C(N)CC(N)C(OC3OCC(C)(O)C(NC)C3O)C2O)O1 (stereo not drawn) [gentamicin]
MIC [2, 7]: > 16 µg/mL

C[C@@H](O)[C@H]1C(=O)N2C(C(=O)O)=C(S[C@@H]3CN[C@H](C(=O)N(C)C)C3)[C@H](C)[C@H]12 [meropenem]
MIC [2, 7]: > 8 µg/mL

CN(C)c1ccc(O)c2c1C[C@H]1C[C@H]3[C@H](N(C)C)C(O)=C(C(N)=O)C(=O)[C@@]3(O)C(O)=C1C2=O [minocycline]
MIC [2, 7]: > 8 µg/mL

CCN1CCN(C(=O)N[C@@H](C(=O)N[C@@H]2C(=O)N3[C@@H]2SC(C)(C)[C@@H]3C(=O)O)c2ccccc2)C(=O)C1=O [piperacillin]
MIC [2, 7]: 8 µg/mL (≈ 15.5 µM)

colistin
average steady-state concentration of colistin, median [3, 8]: 2.36 µg/mL
average steady-state concentration of colistin, range [3, 8]: 0.48 to 9.38 µg/mL
minimal concentration of colistin, median [3, 9]: 1.18 µg/mL
minimal concentration of colistin, range [3, 9]: 0.16 to 5.99 µg/mL
peak concentration of colistin, median [3, 9]: 1.81 µg/mL
peak concentration of colistin, range [3, 9]: 0.16 to 6.12 µg/mL
HD clearance (CLHD) [4]: 30.7 mL/min
colistin concentration in plasma ([5]; day 7, approximately 20 h after administration of CMS (loading dose 250 mg)): 7.85 µg/mL
colistin concentration in plasma ([5]; day 8, ~24 h after dose, CMS 75 mg every 24 h): 5.95 µg/mL
colistin concentration in plasma ([5]; day 9, ~24 h after dose, CMS 75 mg every 24 h): 3.91 µg/mL
colistin concentration in plasma ([5]; day 12, ~24 h after dose, CMS 75 mg every 24 h): 3.70 µg/mL
colistin concentration in plasma at the end of the HD session ([5]; day 10, end of 3 h HD session): 2.75 µg/mL
colistin concentration in plasma at the start of the HD session ([5]; day 10, start of 3 h HD session): 4.57 µg/mL
minimum inhibitory concentration [2, 7]: ≤ 1 µg/mL

colistin A
Refrigerated, recovery relative to freshly prepared samples ([1]; 0.10 μg/mL): 100 ± 1%
Room temperature, recovery relative to freshly prepared samples ([1]; 0.10 μg/mL): 102 ± 3%
Freeze-thaw, recovery relative to freshly prepared samples ([1]; 0.10 μg/mL): 97 ± 3%
Frozen, recovery relative to freshly prepared samples ([1]; 0.10 μg/mL): 105 ± 3%
Refrigerated, recovery relative to freshly prepared samples ([1]; 8.00 μg/mL): 100 ± 3%
Room temperature, recovery relative to freshly prepared samples ([1]; 8.00 μg/mL): 99 ± 2%
Freeze-thaw, recovery relative to freshly prepared samples ([1]; 8.00 μg/mL): 100 ± 2%
Frozen, recovery relative to freshly prepared samples ([1]; 8.00 μg/mL): 102 ± 2%

colistin B
Refrigerated, recovery relative to freshly prepared samples ([1]; 0.10 μg/mL): 102 ± 2%
Room temperature, recovery relative to freshly prepared samples ([1]; 0.10 μg/mL): 102 ± 2%
Freeze-thaw, recovery relative to freshly prepared samples ([1]; 0.10 μg/mL): 102 ± 3%
Frozen, recovery relative to freshly prepared samples ([1]; 0.10 μg/mL): 105 ± 2%
Refrigerated, recovery relative to freshly prepared samples ([1]; 8.00 μg/mL): 98 ± 3%
Room temperature, recovery relative to freshly prepared samples ([1]; 8.00 μg/mL): 101 ± 2%
Freeze-thaw, recovery relative to freshly prepared samples ([1]; 8.00 μg/mL): 99 ± 3%
Frozen, recovery relative to freshly prepared samples ([1]; 8.00 μg/mL): 100 ± 3%

colistin methanesulfonate [CMS]
blood cultures after switching to CMS therapy [6]: negative
